From ChEMBL document CHEMBL1151200, “Comparison of fascaplysin and related alkaloids: a study of structures, cytotoxicities, and sources” (J Nat Prod, 2004)
pIC50: −log10 of the molar value.

How the values were obtained:
CCRF-CEM [1] = assay: Cytotoxicity against human CEM cells at 84 ug/disk by disk diffusion soft agar colony formation assay; assay type: functional
MC-38 [2] = assay: Cytotoxicity against mouse C38 cells at 84 ug/disk by disk diffusion soft agar colony formation assay; assay type: functional
[3] = Cytotoxicity against mouse CFU-GM cells at 84 ug/disk by disk diffusion soft agar colony formation assay; assay type: cell-based
[4] = Cytotoxicity against human H116 cells at 84 ug/disk by disk diffusion soft agar colony formation assay; assay type: functional
[5] = Cytotoxicity against human H125 cells at 84 ug/disk by disk diffusion soft agar colony formation assay; assay type: functional
L1210 [6] = assay: Cytotoxicity against mouse L1210 cells at 84 ug/disk by disk diffusion soft agar colony formation assay; assay type: functional
NCI-H322M = assay: Antitumor activity against human NCI-H322M cells; assay type: functional, cell-based
BT-549 = assay: Antitumor activity against human BT549 cells; assay type: functional, cell-based
SR = assay: Antitumor activity against human SR cells; assay type: functional, cell-based
LOX IMVI = assay: Antitumor activity against human LOXIMVI cells; assay type: functional, cell-based
MCF7 [7] = assay: Antitumor activity against human MCF7 cells; assay type: functional, cell-based
SF-268 = assay: Antitumor activity against human SF268 cells; assay type: functional, cell-based
Malme-3M = assay: Antitumor activity against human MALME-3M cells; assay type: functional, cell-based
HL-60(TB) = assay: Antitumor activity against human HL-60(TB) cells; assay type: functional, cell-based
SW-620 = assay: Antitumor activity against human SW620 cells; assay type: functional, cell-based
TK-10 = assay: Antitumor activity against human TK10 cells; assay type: functional, cell-based
NCI-H460 = assay: Antitumor activity against human NCI-H460 cells; assay type: functional, cell-based
RPMI-8226 = assay: Antitumor activity against human RPMI8226 cells; assay type: functional, cell-based
OVCAR-3 = assay: Antitumor activity against human OVCAR-3 cells; assay type: functional, cell-based
MDA-MB-231 = assay: Antitumor activity against human MDA-MB-231 cells; assay type: functional, cell-based
MOLT-4 = assay: Antitumor activity against human MOLT4 cells; assay type: functional, cell-based
HCT-116 = assay: Antitumor activity against human HCT116 cells; assay type: functional, cell-based
UO-31 = assay: Antitumor activity against human UO31 cells; assay type: functional, cell-based
HCT-15 = assay: Antitumor activity against human HCT15 cells; assay type: functional, cell-based
OVCAR-8 = assay: Antitumor activity against human OVCAR8 cells; assay type: functional, cell-based
[8] = Antitumor activity against human 786-O cells; assay type: functional, cell-based; conditions: 786-0
UACC-257 = assay: Antitumor activity against human UACC257 cells; assay type: functional, cell-based
PC-3 = assay: Antitumor activity against human PC3 cells; assay type: functional, cell-based
K562 = assay: Antitumor activity against human K562 cells; assay type: functional, cell-based
KM12 = assay: Antitumor activity against human KM12 cells; assay type: functional, cell-based
MDA-N = assay: Antitumor activity against human MDA-N cells; assay type: functional, cell-based
A549 = assay: Antitumor activity against human A549/ATCC cells; assay type: functional, cell-based
SF-539 = assay: Antitumor activity against human SF539 cells; assay type: functional, cell-based
HCC 2998 = assay: Antitumor activity against human HCC2998 cells; assay type: functional, cell-based
HOP-92 = assay: Antitumor activity against human HOP92 cells; assay type: functional, cell-based
SK-MEL-5 = assay: Antitumor activity against human SK-MEL-5 cells; assay type: functional, cell-based
SN12C = assay: Antitumor activity against human SN12C cells; assay type: functional, cell-based
DU-145 = assay: Antitumor activity against human DU145 cells; assay type: functional, cell-based
T47D = assay: Antitumor activity against human T47D cells; assay type: functional, cell-based
RXF 393 = assay: Antitumor activity against human RXF393 cells; assay type: functional, cell-based
COLO 205 = assay: Antitumor activity against human COLO205 cells; assay type: functional, cell-based
SNB-75 = assay: Antitumor activity against human SNB75 cells; assay type: functional, cell-based
CCRF-CEM [9] = assay: Antitumor activity against human CCRF-CEM cells; assay type: functional, cell-based
OVCAR-4 = assay: Antitumor activity against human OVCAR4 cells; assay type: functional, cell-based
SK-MEL-28 = assay: Antitumor activity against human SK-MEL-28 cells; assay type: functional, cell-based
NCI-H522 = assay: Antitumor activity against human NCI-H522 cells; assay type: functional, cell-based
HT-29 = assay: Antitumor activity against human HT-29 cells; assay type: functional, cell-based
MCF7 [10] = assay: Antitumor activity against […] human MCF7 cells; assay type: functional, cell-based
[11] = Antitumor activity against human Hs 578T cells; assay type: functional, cell-based
NCI-H226 = assay: Antitumor activity against human NCI-H226 cells; assay type: functional, cell-based
SNB-19 = assay: Antitumor activity against human SNB19 cells; assay type: functional, cell-based
NCI-H23 = assay: Antitumor activity against human NCI-H23 cells; assay type: functional, cell-based
HOP-62 = assay: Antitumor activity against human HOP62 cells; assay type: functional, cell-based
UACC-62 = assay: Antitumor activity against human UACC62 cells; assay type: functional, cell-based
SK-OV-3 = assay: Antitumor activity against human SKOV3 cells; assay type: functional, cell-based
IGROV-1 = assay: Antitumor activity against human IGROV1 cells; assay type: functional, cell-based
U-251 = assay: Antitumor activity against human U251 cells; assay type: functional, cell-based
OVCAR-5 = assay: Antitumor activity against human OVCAR5 cells; assay type: functional, cell-based
CAKI-1 = assay: Antitumor activity against human Caki1 cells; assay type: functional, cell-based
M14 = assay: Antitumor activity against human M14 cells; assay type: functional, cell-based
MDA-MB-435 = assay: Antitumor activity against human MDA-MB-435 cells; assay type: functional, cell-based
EKVX = assay: Antitumor activity against human EKVX cells; assay type: functional, cell-based
ACHN = assay: Antitumor activity against human ACHN cells; assay type: functional, cell-based
SF-295 = assay: Antitumor activity against human SF295 cells; assay type: functional, cell-based
CCRF-CEM [12] = assay: Cytotoxicity against human CEM cells at 64 ug/disk by disk diffusion soft agar colony formation assay; assay type: functional
L1210 [13] = assay: Cytotoxicity against mouse L1210 cells at 64 ug/disk by disk diffusion soft agar colony formation assay; assay type: functional
[14] = Cytotoxicity against human H116 cells at 64 ug/disk by disk diffusion soft agar colony formation assay; assay type: functional
MC-38 [15] = assay: Cytotoxicity against mouse C38 cells at 64 ug/disk by disk diffusion soft agar colony formation assay; assay type: functional
[16] = Cytotoxicity against human H125 cells at 64 ug/disk by disk diffusion soft agar colony formation assay; assay type: functional
CCRF-CEM [17] = assay: Cytotoxicity against human CEM cells at 18 ug/disk by disk diffusion soft agar colony formation assay; assay type: functional
[18] = Cytotoxicity against human H125 cells at 18 ug/disk by disk diffusion soft agar colony formation assay; assay type: functional
MC-38 [19] = assay: Cytotoxicity against mouse C38 cells at 18 ug/disk by disk diffusion soft agar colony formation assay; assay type: functional
[20] = Cytotoxicity against mouse CFU-GM cells at 18 ug/disk by disk diffusion soft agar colony formation assay; assay type: cell-based
L1210 [21] = assay: Cytotoxicity against mouse L1210 cells at 18 ug/disk by disk diffusion soft agar colony formation assay; assay type: functional
[22] = Cytotoxicity against human H116 cells at 18 ug/disk by disk diffusion soft agar colony formation assay; assay type: functional

COC(=O)c1ccc(Br)cc1-[n+]1ccc2c(c1)[nH]c1cc(Br)ccc12.[Cl-]
Activity (CCRF-CEM [1]): 300 Zone units | Activity (MC-38 [2]): 350 Zone units | Activity [3]: 400 Zone units | Activity [4]: 300 Zone units | Activity [5]: 500 Zone units | Activity (L1210 [6]): 450 Zone units

CC1=C(CC/C(C)=C/CC/C(C)=C/CCC(CC(=O)O)C(=O)[O-])C(C)(C)CCC1.O=C1c2ccccc2-[n+]2ccc3c([nH]c4ccccc43)c21 (stereo not given) [FASCAPLYSIN A]
pIC50 (NCI-H322M): 5.37 | pIC50 (BT-549): 5.29 | pIC50 (SR): < 5.00 | pIC50 (LOX IMVI): 5.20 | pIC50 (MCF7 [7]): 5.30 | pIC50 (SF-268): 5.24 | pIC50 (Malme-3M): 6.27 | pIC50 (HL-60(TB)): < 5.00 | pIC50 (SW-620): 5.41 | pIC50 (TK-10): < 5.00 | pIC50 (NCI-H460): 5.19 | pIC50 (RPMI-8226): < 5.00 | pIC50 (OVCAR-3): 5.51 | pIC50 (MDA-MB-231): 5.17 | pIC50 (MOLT-4): < 5.00 | pIC50 (HCT-116): 5.80 | pIC50 (UO-31): 5.25 | pIC50 (HCT-15): 5.24 | pIC50 (OVCAR-8): 5.28 | pIC50 [8]: 5.29 | pIC50 (UACC-257): 5.42 | pIC50 (PC-3): 5.27 | pIC50 (K562): < 5.00 | pIC50 (KM12): 5.14 | pIC50 (MDA-N): 6.24 | pIC50 (A549): 5.12 | pIC50 (SF-539): 5.66 | pIC50 (HCC 2998): 5.42 | pIC50 (HOP-92): 6.00 | pIC50 (SK-MEL-5): 6.28 | pIC50 (SN12C): 5.49 | pIC50 (DU-145): 5.25 | pIC50 (T47D): 5.18 | pIC50 (RXF 393): 5.46 | pIC50 (COLO 205): 6.08 | pIC50 (SNB-75): 5.28 | pIC50 (CCRF-CEM [9]): < 5.00 | pIC50 (OVCAR-4): 5.35 | pIC50 (SK-MEL-28): 5.41 | pIC50 (NCI-H522): 5.20 | pIC50 (HT-29): 5.85 | pIC50 (MCF7 [10]): < 5.00 | pIC50 [11]: < 5.00 | pIC50 (NCI-H226): 5.08 | pIC50 (SNB-19): 5.27 | pIC50 (NCI-H23): 5.29 | pIC50 (HOP-62): 5.29 | pIC50 (UACC-62): 5.49 | pIC50 (SK-OV-3): 5.11 | pIC50 (IGROV-1): 5.77 | pIC50 (U-251): 5.39 | pIC50 (OVCAR-5): 5.24 | pIC50 (CAKI-1): 5.14 | pIC50 (M14): 5.38 | pIC50 (MDA-MB-435): 6.24 | pIC50 (EKVX): 5.28 | pIC50 (ACHN): 5.26 | pIC50 (SF-295): 5.28

O=C(O)c1ccccc1-[n+]1ccc2c(c1)[nH]c1ccccc12.[Cl-] [RETICULATATE]
Activity (CCRF-CEM [12]): 350 Zone units | Activity (L1210 [13]): 650 Zone units | Activity [14]: 650 Zone units | Activity (MC-38 [15]): 700 Zone units | Activity [16]: 500 Zone units

COC(=O)c1ccccc1-[n+]1ccc2c(c1)[nH]c1ccccc12.[Cl-] [RETICULATINE]
Activity (CCRF-CEM [17]): 500 Zone units | Activity [18]: 600 Zone units | Activity (MC-38 [19]): 600 Zone units | Activity [20]: 350 Zone units | Activity (L1210 [21]): 450 Zone units | Activity [22]: 500 Zone units

Oc1ccccc1-[n+]1ccc2c(c1)[nH]c1ccccc12.[Cl-] [RETICULATOL]
Activity (CCRF-CEM [12]): >1000 Zone units | Activity (L1210 [13]): 200 Zone units | Activity [14]: 100 Zone units | Activity (MC-38 [15]): 200 Zone units | Activity [16]: 400 Zone units
